Series [1] in a line: Electro-oxidation/reduction of species at indium tin oxide electrode (voltammetry). In kind it is physicochemical. The source says: FIG. 7B: Cyclic voltammetric study of the oxidation of Ascorbic acid test in ITO electrodes. Current increase around 0.25V indicates the start of oxidation at ITO electrodes.
Electrode material used: The electrode material was indium tin oxide. This is a semiconducting electrode surface with very large potential window in an aqueous solution.
Oxidation of ascorbic acid at the electrode surfaces produced H^+ ions and changed the electrode surface pH to a more acidic state: AH2→A+2H^++2e^−, where AH2 is ascorbic acid ([…]) (as shown in FIG. 5). The electrode potential at which it oxidizes was less than 0.5V for Indium tin oxide material vs Ag/AgCl reference electrode (as shown in FIG. 7). This potential was less than the voltages needed for the oxygen evolution reaction in aqueous solution. Higher electrode potential (e.g. >1V for ITO electrodes in just phosphate buffer) can damage the PEG layer (as shown in FIG. 8). The ascorbic acid also acted as a sacrificial species to prevent electrochemical degradation of the surface chemistry.
Reduction of benzoquinone (C6H4O2) into Hydroquinone (C6H6O2) can produce OH− ions at −0.1V: BQ+2e^−+2H2O→HQ+2OH^− This reduction reaction increased the pH at the electrode interface.

Series [2] addresses Green Fluorescent Protein (GFP) (Aequorea victoria, UniProt P42212). As to the kind of experiment: GFP fluorescence intensity after incubation with benzoquinones (protein stability). In kind it is biochemical. Particulars: 0.5 mM benzoquinone, phosphate buffered saline, 30 min. The source says: Para-benzoquinones and ortho-benzoquinones (compounds 2, 4, 6, and 9 in FIG. 22) are susceptible to nucleophilic attack at the double bond of the ring (positions 2, 3, 5 and 6 in structure 2 of FIG. 22, positions 3, 4, 5 and 6 in structure 4 of FIG. 22, and positions 2 and 3 in structure 6 of FIG. 22). Introducing substituents at some or all of those positions can mitigate the problem of nucleophilic attack. For example, 1,4-benzoquinone (structure 2 in FIG. 22, where R1, R2, R3 and R4 are H) undergoes Michael addition reaction with amino groups of proteins (Loomis et al., Phytochemistry, 5, 423, (1966) and U.S. Pat. No. 6,753,312 B2). […] Fluorescence intensity of Green Fluorescent Protein (GFP) was measured after incubation with three different benzoquinones in phosphate buffered saline for 30 min (concentration of benzoquinones was 0.5 mM). The difference in fluorescence intensity indicates the varied effect that the different substitutions in benzoquinones have on the stability of GFP. Fluorescence intensity of GFP is indicative of its structural integrity. Losses in fluorescence intensity usually indicate loss of its tertiary structure (protein denaturation) (Yin D. X., Zhu L., Schimke R. T. Anal. Biochem. 1996, 235:195-201).

With `O=C1C=CC(=O)C=C1` [unsubstituted benzoquinone, 1,4-benzoquinone], the “potential of reduction into hydroquinone producing OH- ions” value in series [1] was −0.1 V. The “loss in GFP fluorescence intensity” value in series [2] is 25%.
Turning to `O=C1O[C@H]([C@@H](O)CO)C(O)=C1O` [ascorbic acid], the “start of oxidation (current increase), cyclic voltammetry” value in series [1] (ITO electrodes) was “around 0.25 V”. The “electrode potential at which it oxidizes” value in series [1] (Indium tin oxide vs Ag/AgCl reference electrode) is “less than 0.5 V”.

Source of the values: patent US11867660B2, “Electronic control of the pH of a solution close to an electrode surface” (Robert Bosch GmbH, priority 2015, dated 2024).
